# Experimental data as given in patent EP0603240B1, “SAFENING HERBICIDAL PYRAZOLYLSULFONYLUREAS” (priority 1991, dated 1993).
# Experiments:
# Format in all cases: in vivo
# corn [1] = experiment: Example 14, Procedure II: Herbicide No. 1 + metolachlor (No. 12) with Antidote No. 17
# Protocol: (§1) Containers were filled and compacted with a fumigated silt loam top soil to a depth of about 1.3 cm from the top of the container. A first container was designated as an untreated control, a second container was designated as a herbicide control, and a third container was designated as a herbicide + antidote test container. Each of the containers was seeded with a crop species. A measured amount of herbicide dispersed or dissolved in acetone was applied to a measured quantity of soil. To this same quantity of soil treated with herbicide, there was added a measured amount of antidote dispersed or dissolved in acetone. The quantity of soil treated with the herbicide and antidote was thoroughly mixed to incorporate the herbicide and antidote in the soil uniformly. The seed bed in the third container of soil was covered with the soil treated with the herbicide and antidote and the container was leveled. For each test series, the seed beds of the first and second containers were likewise covered by soil layers. the cover layer of the first container was not treated with herbicide or antidote.
# (§2) The containers were then placed on a bench in a greenhouse and sub-irrigated as required for the duration of the test. […] Plant response is measured in terms of percent injury. Antidote efficacy is indicated as the difference in plant injury by the herbicide(s) without the antidote and with the antidote.
# (§3) This procedure is the same as Procedure I, but modified in the manner that after incorporation of the chemicals (herbicide and antidote) the containers with the covered seedbed were treated with an initial overhead irrigation equivalent to 0.6 cm rainfall, then subsequently sub-irrigated as required on greenhouse benches.
# In this example a plurality of dichloroacetamide antidotes were tested for their safening efficacy against a herbicidal composition comprising Herbicide No. […] The procedure used in this example was Procedure II above. […]
# [2] = test system: velvetleaf (Abutilon theophrasti); experiment: as above
# corn [3] = experiment: Example 20, Procedure II: Herbicide No. 1 + EPTC or ERADICANE EXTRA with Antidote Nos. 5 and 15
# Protocol: as §1, §2, §3
# This example describes experiments designed to test two generally efficacious antidotal compounds, i.e., Antidote Nos. 5 and 15, against the herbicidal action of the sulfonylurea compound, Herbicide No. 1, and the commercial herbicides EPTC (Herbicide No. 4) and ERADICANE® EXTRA (EPTC + R-29148, Antidote No. 5). Procedure II above was used in conducting these experiments. Formulations of EPTC and ERADICANE EXTRA were applied onto soil cover layers (to be applied over seed beds), followed by sequential pipetting of Herbicide No. 1 and Antidote No. 15. The soil was mixed to homogeneity and spread over the seed beds followed by 0.6 cm of overhead irrigation.
# [4] = Herbicide No.1 0.14 + No.12 4.48 kg/ha + Antidote No.17 0.15 kg/ha
# [5] = Herbicide No.1 0.56 + No.12 4.48 kg/ha + Antidote No.17 0.15 kg/ha
# [6] = Herbicide No.1 2.24 + No.12 4.48 kg/ha + Antidote No.17 0.15 kg/ha
structure (smiles),measurement,setting,value
CC1COc2ccccc2N1C(=O)C(Cl)Cl (centres unmarked) [compound 17],% Injury Corn,corn [1]; [4],15%
same,% Injury Corn,corn [1]; [5],25%
same,% Injury Corn,corn [1]; [6],80%
same,% Injury VL,[2]; [4],90%
same,% Injury VL,[2]; [5],95%
same,% Injury VL,[2]; [6],100%
COC(=O)c1c(Cl)nn(C)c1S(=O)(=O)NC(=O)Nc1nc(OC)cc(OC)n1 [No.1],% Injury Corn,corn [3]; Herbicide No.1 0.56 kg/ha + ERADICANE EXTRA 2.24 kg/ha,55%
same,% Injury Corn,corn [3]; Herbicide No.1 0.56 kg/ha + ERADICANE EXTRA 4.48 kg/ha,65%
same,% Injury Corn,corn [3]; Herbicide No.1 0.56 kg/ha + ERADICANE EXTRA 6.72 kg/ha,75%
same,% Injury Corn,"corn [3]; Herbicide No.1 0.56 kg/ha + No. 4 2.24 kg/ha, no antidote",75%
same,% Injury Corn,"corn [3]; Herbicide No.1 0.56 kg/ha + No. 4 4.48 kg/ha, no antidote",35%
same,% Injury Corn,"corn [3]; Herbicide No.1 0.56 kg/ha + No. 4 6.72 kg/ha, no antidote",85%
same,% Injury Corn,corn [3]; Herbicide No.1 0.56 kg/ha alone,70%
same,% Injury Corn,corn [3]; Herbicide No.1 2.24 kg/ha + ERADICANE EXTRA 2.24 kg/ha,90%
same,% Injury Corn,corn [3]; Herbicide No.1 2.24 kg/ha + ERADICANE EXTRA 4.48 kg/ha,85%
same,% Injury Corn,corn [3]; Herbicide No.1 2.24 kg/ha + ERADICANE EXTRA 6.72 kg/ha,95%
same,% Injury Corn,"corn [3]; Herbicide No.1 2.24 kg/ha + No. 4 2.24 kg/ha, no antidote",90%
same,% Injury Corn,"corn [3]; Herbicide No.1 2.24 kg/ha + No. 4 4.48 kg/ha, no antidote",70%
same,% Injury Corn,"corn [3]; Herbicide No.1 2.24 kg/ha + No. 4 6.72 kg/ha, no antidote",90%
same,% Injury Corn,corn [3]; Herbicide No.1 2.24 kg/ha alone,85%
"CC1(C)OC(c2ccco2)CN1C(=O)C(Cl)Cl (centres unmarked) [Antidote No. 15, Oxazolidine, 3-(dichloroacetyl)-5-(2-furanyl)-2,2-dimethyl]",% Injury Corn,"corn [3]; Herbicide No.1 0.56 kg/ha + No. 4 2.24 kg/ha, Antidote No. 15 0.18 kg/ha",5%
same,% Injury Corn,"corn [3]; Herbicide No.1 0.56 kg/ha + No. 4 4.48 kg/ha, Antidote No. 15 0.35 kg/ha",15%
same,% Injury Corn,"corn [3]; Herbicide No.1 0.56 kg/ha + No. 4 6.78 kg/ha, Antidote No. 15 0.56 kg/ha",0%
same,% Injury Corn,"corn [3]; Herbicide No.1 2.24 kg/ha + No. 4 2.24 kg/ha, Antidote No. 15 0.18 kg/ha",35%
same,% Injury Corn,"corn [3]; Herbicide No.1 2.24 kg/ha + No. 4 4.48 kg/ha, Antidote No. 15 0.35 kg/ha",15%
same,% Injury Corn,"corn [3]; Herbicide No.1 2.24 kg/ha + No. 4 6.78 kg/ha, Antidote No. 15 0.56 kg/ha",15%
